Test results as given in patent US20260297092A1, “PYRAZOLOPYRIMIDINE DERIVATIVES AS INHIBITORS OF NLRP3” (Takeda Pharmaceutical Company Limited, priority 2023, published 2026).

What was measured:
[1] = test system: NLRP3 inflammasome (IL-1β production in THP-1 cells); assay: IL-1β TR-FRET Assay (percentage of inhibition at 300 nM, 6 μM or 10 μM); format: cell-based, human; details: Homo sapiens, LPS priming, ATP activation; for inhibition at 0.3 µM: THP-1, 300 nM, read-out: IL-1β inhibitory rate at 300 nM (%); for inhibition at 6 µM: THP-1, 6 μM, read-out: IL-1β inhibitory rate at 6 μM (%)
Method: The biological activity of the compound of Formula 1 with respect to NLRP3 was determined using the following in vitro method.
IL-1β TR-FRET Assay (reported as percentage of inhibition at 300 nM, 6 μM or 10 μM)
Monocytic THP-1 cells (ATCC: TIB-202) were maintained in accordance with the provider's instructions in RPMI media (Life Technologies, Cat #A10491-01); RPMI was supplemented with 10% heat inactivated fetal bovine serum (Corning, Cat #35-010-CV). The cells were differentiated into macrophages by the addition of 25 ng/mL IFN-γ (PeproTech, Cat #AF-300-02-100UG) for 24 hours at 37° C./5% CO2. Media was exchanged with fresh media with no FBS, and the cells were treated with 50 ng/mL LPS (priming step) (LPS-EK: Invivogen, Cat #tlrl-peklps). The cells were plated at 20,000 cells per well in 384-well flat-bottom cell culture plates (FALCON, Cat #353962) and were incubated for 24 hours at 37° C./5% CO2. Compounds were serially diluted (half log or 5-fold dilutions) with DMSO and were finally diluted with Media with no FBS. The compounds were added to the cells in 384-well plates (added in 1:3) and then the plates were incubated for 30 minutes at 37° C./5% CO2. The NLRP3 inflammasome was activated with the addition of 20 mM ATP (Sigma Cat #A3377-25G) and the cells were incubated for 2 hours at 37° C./5% CO2. At the end of the incubation period, 30 μL supernatant was transferred to another 384-well plate and mixed on a plate shaker for 1 minute. The supernatant was mixed with HTRF Antibody (Human IL1 beta kit, Cisbio, 62HIL1BPEH) in assay plates (Greiner Bio-One, Cat #784075) and the assay plates were incubated in shading box at room temperature for 16-24 hours. HTRF signal was measured by EnVision (Perkinelmer) in accordance with the manufacturer's instructions.
The percentage of inhibition at 300 nM, 6 μM or 10 μM in the IL-1βTR-FRET assay was calculated by the following formula: Percentage of inhibition=[1−(HTRF signaltest−HTRF signalLow)/(HTRF signalHigh−HTRF signalLow)]*100, where HTRF signaltest is the HTRF signal in the well to which test compound is added, HTRF signalLow is the HTRF signal in the well to which 3 μM MCC-950 is added, and the HTRF signalHigh is the HTRF signal in the well to which DMSO is added.

[2] = test system: TNF-α (NF-κB pathway, THP-1 cells); assay: TNF-α Assay (IC50); format: cell-based, human; details: Homo sapiens, 600 ng/mL LPS, 3 hours
Method: TNF-α Assay (Reported as IC50)
Monocytic THP-1 cells (ATCC: TIB-202) were maintained in accordance with the provider's instructions in RPMI media (Life Technologies, Cat #A10491-01); RPMI was supplemented with 10% heat inactivated fetal bovine serum (Hyclone Cat #SH30396.03). The cells were differentiated into macrophages by the addition of 25 ng/mL IFN-7 for 24 hours at 37° C./5% CO2. Media was exchanged with fresh media with no FBS. The cells were plated at 40,000 cells per well in 384-well flat-bottom cell culture plates (Costar 3764) containing compounds (added in 1:1000) in a 1:3.16 serial dilution series in DMSO and were incubated for 30 minutes at 37° C./5% CO2. The NF-κB pathway was activated with the addition of 600 ng/mL LPS and the cells were incubated for 3 hours at 37° C./5% CO2. At the end of the incubation period, supernatant ([…]) was removed, and TNF-alpha were monitored using an ELISA (Human TNF-α ELISA, R&D systems, Cat #DY210) according to the manufacturer's instructions. 100% inhibition is determined with positive control, TPCA-1.
The IC50 values in the TNF-α assay were calculated from a plot of percentage of inhibition versus the inhibitor concentration by a logistics curve fit according to: Y=[Bottom+(Top−Bottom)]/(1+10^[(Log IC50−X)·Hill Slope], where Y was the […] at the inhibitor concentration, X, “Bottom” was the lowest inhibition value, i.e., 0%, “Top” was the maximum inhibition value, i.e., 100%, and the “Hill Slope” described the slope of the sigmoidal curve between the “Bottom” and “Top” values. The curve fitting was conducted with internally developed software.

CCOc1nc2nn(-c3c(Br)cc(OC(F)F)cc3C(F)F)cc2c(=O)[nH]1 [Example 184, 2-[2-bromo-4-(difluoromethoxy)-6-(difluoromethyl)phenyl]-6-ethoxy-2,5-dihydro-4H-pyrazolo[3,4-d]pyrimidin-4-one]
inhibition at 0.3 µM [1]: 94%
IC50 [2]: > 30 µM

Cc1cc(C2CC2)cc(C)c1-n1cc2c(=O)[nH]c(CC(F)(F)F)nc2n1 [Example 211, 2-(4-cyclopropyl-2,6-dimethylphenyl)-6-(2,2,2-trifluoroethyl)-2,5-dihydro-4H-pyrazolo[3,4-d]pyrimidin-4-one]
inhibition at 0.3 µM [1]: 107%
IC50 [2]: > 30 µM

CCCCc1nc2nn(-c3c(C)cc(C)cc3O)cc2c(=O)[nH]1 [Example 17, 6-butyl-2-(2-hydroxy-4,6-dimethylphenyl)-2,5-dihydro-4H-pyrazolo[3,4-d]pyrimidin-4-one]
inhibition at 0.3 µM [1]: 99%
IC50 [2]: > 30 µM

COc1nc2nn(-c3c(C)cc(C4CC4)cc3C(F)F)cc2c(=O)[nH]1 [Example 209, 2-[4-cyclopropyl-2-(difluoromethyl)-6-methylphenyl]-6-methoxy-2,5-dihydro-4H-pyrazolo[3,4-d]pyrimidin-4-one]
inhibition at 0.3 µM [1]: 103%

COCCOc1nc2nn(-c3c(C)cc(C4CC4)cc3C(F)F)cc2c(=O)[nH]1 [Example 210, 2-[4-cyclopropyl-2-(difluoromethyl)-6-methylphenyl]-6-(2-methoxyethoxy)-2,5-dihydro-4H-pyrazolo[3,4-d]pyrimidin-4-one]
inhibition at 0.3 µM [1]: 101%

COc1nc2nn(-c3c(F)cc(C4CC4)cc3CC(F)F)cc2c(=O)[nH]1 [Example 309, 2-[4-cyclopropyl-2-(2,2-difluoroethyl)-6-fluorophenyl]-6-methoxy-2,5-dihydro-4H-pyrazolo [3,4-d]pyrimidin-4-one]
inhibition at 6 µM [1]: 99%

Cc1cc(C2CC2)cc(C)c1-n1cc2c(=O)[nH]c(CCO)nc2n1 [Example 276, 2-(4-cyclopropyl-2,6-dimethylphenyl)-6-(2-hydroxyethyl)-2,5-dihydro-4H-pyrazolo[3,4-d]pyrimidin-4-one]
inhibition at 6 µM [1]: 99%

Cc1ccc(-n2cc3c(=O)[nH]c(OCC(F)F)nc3n2)c(C)c1 [Example 220, 6-(2,2-difluoroethoxy)-2-(2,4-dimethylphenyl)-2,5-dihydro-4H-pyrazolo [3,4-d]pyrimidin-4-one]
inhibition at 0.3 µM [1]: 71%

Cc1nc2nn(-c3c(C)cc(Br)cc3C)cc2c(=O)[nH]1 [Example 187, 2-(4-bromo-2,6-dimethylphenyl)-6-methyl-2,5-dihydro-4H-pyrazolo[3,4-d]pyrimidin-4-one]
inhibition at 0.3 µM [1]: 97%

CCCc1ccc(-n2nc3nc(OCC)[nH]c(=O)c3c2C)c(O)c1 [Example 80, 6-ethoxy-2-(2-hydroxy-4-propylphenyl)-3-methyl-2,5-dihydro-4H-pyrazolo[3,4-d]pyrimidin-4-one]
inhibition at 0.3 µM [1]: 99%

Cc1nc2nn(-c3c(C)cc(C4CC4)cc3C)cc2c(=O)[nH]1 [Example 180, 2-(4-cyclopropyl-2,6-dimethylphenyl)-6-methyl-2,5-dihydro-4H-pyrazolo[3,4-d]pyrimidin-4-one]
inhibition at 0.3 µM [1]: 99%

Cc1cc(C2CC2)cc(C)c1-n1cc2c(=O)[nH]c(C(C)(F)F)nc2n1 [Example 259, 2-(4-cyclopropyl-2,6-dimethylphenyl)-6-(1,1-difluoroethyl)-2,5-dihydro-4H-pyrazolo[3,4-d]pyrimidin-4-one]
inhibition at 6 µM [1]: 104%

Cc1cc(C2CC2)cc(C(F)F)c1-n1cc2c(=O)[nH]c([C@H]3COCCO3)nc2n1 [Example 325, 2-[4-cyclopropyl-2-(difluoromethyl)-6-methylphenyl]-6-[(2R)-1,4-dioxan-2-yl]-2,5-dihydro-4H-pyrazolo[3,4-d]pyrimidin-4-one or 2-[4-cyclopropyl-2-(difluoromethyl)-6-methylphenyl]-6-[(2S)-1,4-dioxan-2-yl]-2,5-dihydro-4H-pyrazolo[3,4-d]pyrimidin-4-one]
inhibition at 10 µM ([1]; THP-1, 10 μM, read-out: IL-1β inhibitory rate at 10 μM (%)): 100%

Nc1ccc(-n2cc3c(=O)[nH]c(COC(F)F)nc3n2)c(C(F)F)c1 [Example 261, 2-[4-amino-2-(difluoromethyl)phenyl]-6-[(difluoromethoxy)methyl]-2,5-dihydro-4H-pyrazolo[3,4-d]pyrimidin-4-one]
inhibition at 6 µM [1]: 80%

COc1nc2nn(-c3c(OC)cc(C4CC4)cc3C(F)F)cc2c(=O)[nH]1 [Example 169, 2-[4-cyclopropyl-2-(difluoromethyl)-6-methoxyphenyl]-6-methoxy-2,5-dihydro-4H-pyrazolo[3,4-d]pyrimidin-4-one]
inhibition at 0.3 µM [1]: 103%

Cc1cc(Br)cc(C)c1-n1cc2c(=O)[nH]c(C3(F)CC3)nc2n1 [Example 188, 2-(4-bromo-2,6-dimethylphenyl)-6-(1-fluorocyclopropyl)-2,5-dihydro-4H-pyrazolo[3,4-d]pyrimidin-4-one]
inhibition at 0.3 µM [1]: 99%

CCOc1nc2nn(-c3c(F)cc(OC)cc3C(F)F)cc2c(=O)[nH]1 [Example 149, 2-[2-(difluoromethyl)-6-fluoro-4-methoxyphenyl]-6-ethoxy-2,5-dihydro-4H-pyrazolo[3,4-d]pyrimidin-4-one]
inhibition at 0.3 µM [1]: 99%

CCOCc1nc2nn(-c3c(F)cc(C4CC4)cc3C(F)F)cc2c(=O)[nH]1 [Example 314, 2-[4-cyclopropyl-2-(difluoromethyl)-6-fluorophenyl]-6-(ethoxymethyl)-2,5-dihydro-4H-pyrazolo[3,4-d]pyrimidin-4-one]
inhibition at 6 µM [1]: 105%

Cc1cc(C2CC2)cc(C)c1-n1cc2c(=O)[nH]c(-c3ncc(C(F)(F)F)[nH]3)nc2n1 [Example 242, 2-(4-cyclopropyl-2,6-dimethylphenyl)-6-[5-(trifluoromethyl)-1H-imidazol-2-yl]-2,5-dihydro-4H-pyrazolo[3,4-d]pyrimidin-4-one]
inhibition at 6 µM [1]: 104%

CCOc1nc2nn(-c3c(Br)cc(C4CC4)cc3C(F)F)cc2c(=O)[nH]1 [Example 250, 2-[2-bromo-4-cyclopropyl-6-(difluoromethyl)phenyl]-6-ethoxy-2,5-dihydro-4H-pyrazolo[3,4-d]pyrimidin-4-one]
inhibition at 6 µM [1]: 103%

CO[C@H]1C[C@H](Oc2nc3nn(-c4ccc(C)cc4C)cc3c(=O)[nH]2)C1 [Example 244, 2-(2,4-dimethylphenyl)-6-{[(1r,3r)-3-methoxycyclobutyl]oxy}-2,5-dihydro-4H-pyrazolo[3,4-d]pyrimidin-4-one]
inhibition at 6 µM [1]: 100%

CCOc1nc2nn(-c3c(C)cc(Br)cc3OC(F)F)cc2c(=O)[nH]1 [Example 221, 2-[4-bromo-2-(difluoromethoxy)-6-methylphenyl]-6-ethoxy-2,5-dihydro-4H-pyrazolo[3,4-d]pyrimidin-4-one]
inhibition at 0.3 µM [1]: 99%

COCCOc1nc2nn(-c3c(C)cc(C4CC4)cc3OC(F)F)cc2c(=O)[nH]1 [Example 225, 2-[4-cyclopropyl-2-(difluoromethoxy)-6-methylphenyl]-6-(2-methoxyethoxy)-2,5-dihydro-4H-pyrazolo[3,4-d]pyrimidin-4-one]
inhibition at 0.3 µM [1]: 100%
